Source: EP0569777A2 (Bayer Corporation, priority 1992, dated 1993)
Where a SMILES comes first, the peptide text is derived from it. [ ]: non-standard residue; d: D form. The star is where a group is joined. Sta = CC(C)C[C@H](N)[C@@H](O)CC(=O)O; Isovaleryl = CC(C)CC(=O)*

How the values were obtained:
Type in all cases: biochemical
[1] = biological target: T1, human cathepsin D (human liver, Cal Biochem, catalog # 219401) (Homo sapiens, UniProt P07339); experiment: Immunoblot assay of holo-APP 695 degradation by purified cathepsin D
Description: The numbers indicate the time (hr) after initiation of reactions. Reactions were initiated at 37°C by the addition of APP to achieve the following initial component concentrations: APP (82 nM), cathepsin D (9.2 ug/ml),in […] Mes buffer pH 6.5. Samples without pepstatin received the same amount of solvent (1.3 % v/v methanol). At t=0, 43, 84, 140 and 215 minutes aliquots (15 ul) were removed mixed with 7.5 ul of SDS-PAGE sample buffer and subject to immunoblot analysis using the Rabbit antiserum to the APP C-terminal domain. The 18 and 28 kDa reaction products are located with arrows.
Reactions were initiated at 37°C by APP addition thereby achieving the following initial component concentrations: APP (448 nM), cathepsin D (30 nM), and when included pepstatin A (97.2 µm) in 83 mM sodium acetate buffer pH 5.0. At the indicated time points, aliquots (20 ul), were removed mixed with 10 ul of 3X SDSPAGE sample buffer and subjected to immunoblot analysis using monoclonal antibody 286.8A (1/100). Reactions were performed in the absence (-) or presence (+) of pepstatin A (delivered in methanol). All samples received 2.7 % (v/v) methanol. Lanes 1 and 12 contained prestained Mr markers, Lanes 10 and 18 contained C-100 Mr marker. Lanes 11 and 13 contained APP incubated without cathepsin D for zero and 21hr respectively. The main product fragments are indicated with arrows. […]

[2] = biological target: T1, human cathepsin D (human liver, Cal Biochem, catalog # 219401); experiment: N-dansyl peptide (SEQ ID NO: 7) peptidase assay with HPLC detection, cathepsin D; conditions: pepstatin A 213 uM; cathepsin D 2.8 ug/ml, N-Dansyl-peptide 24 uM, pH 5.0, 37 C; Figure 10
Description: (§1) Reactions (30 ul) were initiated at 37 C by enzyme/inhibitor addition thereby achieving the following t=0 component concentrations: Cathepsin D (2.8 ug/ml), or P-2 enzyme from figure 6 (17.5 ug/ml), N-Dansyl-peptide (24 uM), captopril (0.3 mM) in a cocktail buffer comprising 130 mM in each of acetate, Mes and Tris pH 5.0. Samples contained either pepstatin A (213 uM in 3% v/v final methanol) or an equivalent final concentration of methanol only. At 0, 2, 4, 8 and 24hr, reactions were terminated by addition of 12 % (v/v) TFA (10 ul) and subject to HPLC analysis according to example 2 and 3.
(§2) • i) Incubations. […] Incubation with ion-exchange fractions was performed at 37°C for 24 hrs, after which reactions were terminated by adjusting to 3% (v/v) final in TFA. • ii) HPLC quantification of proteolytic products. HPLC analysis was performed using a Hewlet-Packard HP1090 complete with binary solvent delivery, heated column compartment, and auto injector.

[3] = biological target: human brain P-2 enzyme (peak B), aspartic protease identified as cathepsin D (Homo sapiens, UniProt P07339); experiment: N-dansyl peptide (SEQ ID NO: 7) peptidase assay with HPLC detection, P-2 enzyme (peak B); conditions: pepstatin A 213 uM; P-2 enzyme 17.5 ug/ml, N-Dansyl-peptide 24 uM, pH 5.0, 37 C; Figure 10
Description: as §1, §2

T1 sequence (P07339 with tags, fused parts or gaps): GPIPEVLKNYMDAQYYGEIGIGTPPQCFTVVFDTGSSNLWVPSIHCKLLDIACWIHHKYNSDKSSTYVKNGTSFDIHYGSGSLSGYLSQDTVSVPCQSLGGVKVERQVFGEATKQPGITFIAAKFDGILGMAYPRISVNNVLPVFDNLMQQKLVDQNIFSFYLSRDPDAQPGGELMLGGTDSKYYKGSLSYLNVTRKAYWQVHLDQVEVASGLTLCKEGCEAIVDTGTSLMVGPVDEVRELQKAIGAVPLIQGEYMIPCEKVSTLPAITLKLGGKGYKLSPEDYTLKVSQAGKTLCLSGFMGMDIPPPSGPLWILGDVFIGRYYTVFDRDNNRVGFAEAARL
Sequence of human brain P-2 enzyme (peak B), aspartic protease identified as cathepsin D (P07339 with tags, fused parts or gaps): as above

For `CC(C)CC(=O)N[C@H](C(=O)N[C@H](C(=O)N[C@@H](CC(C)C)[C@@H](O)CC(=O)N[C@@H](C)C(=O)N[C@@H](CC(C)C)[C@@H](O)CC(=O)O)C(C)C)C(C)C` [pepstatin A] (Isovaleryl-VV[Sta]A[Sta]-OH), the “Inhibition of cathepsin D catalysed APP cleavage (18 and 28 kDa C-terminal products)” value ([1]; 86 uM pepstatin A, APP 82 nM, cathepsin D 9.2 ug/ml, Mes buffer pH 6.5, 37°C, Figure 8) was “Inhibition”, the “Inhibition of cathepsin D catalysed APP degradation (beta-amyloid immunoreactive bands, Figure 13)” value ([1]; pepstatin A 97.2 µm, APP 448 nM, cathepsin D 30 nM, sodium acetate buffer pH 5.0, 37°C) was “inhibited” and the “Inhibition of peptidase reaction catalyzed by Cathepsin D” value [2] was “inhibited”. For the same compound, the “Inhibition of peptidase reaction catalyzed by the P-2 enzyme preparation” value [3] was “inhibited”.
